System: 266295-075-R-J1-PDC spheroid viability
Experiment: Anticancer human tumor 266295-075-R-J1-PDC patient-derived head and neck squamous carcinoma cell line growth inhibition [POLQ]
Conditions: spheroids with HUVEC and MSC; for IC50: curve of first compound; for viability, T/C: stronger effect = lower value
Method in brief: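 Patient-derived tumour cells were co-cultured with HUVEC and mesenchymal stem cells as multicellular spheroids at 37 °C. They were treated with POLQ inhibitors (novobiocin, ART-558, RP6685) alone or combined with other agents. Top concentrations were at or near clinical Cmax (otherwise 10 microM; SN-38 at 1 microM), decreasing in half-log steps.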

[1] = second compound 0.0316 µM, first compound 0.0316 µM
[2] = second compound 0.0316 µM, first compound 0.1 µM
[3] = second compound 0.0316 µM, first compound 0.316 µM
[4] = second compound 0.0316 µM, first compound 1 µM
[5] = second compound 0.0316 µM, first compound 3.16 µM
[6] = second compound 0.0316 µM, first compound 10 µM
[7] = second compound 0.1 µM, first compound 0.0316 µM
[8] = second compound 0.1 µM, first compound 0.1 µM
[9] = second compound 0.1 µM, first compound 0.316 µM
[10] = second compound 0.1 µM, first compound 1 µM
[11] = second compound 0.1 µM, first compound 3.16 µM
[12] = second compound 0.1 µM, first compound 10 µM
[13] = second compound 0.316 µM, first compound 0.0316 µM
[14] = second compound 0.316 µM, first compound 0.1 µM
[15] = second compound 0.316 µM, first compound 0.316 µM
[16] = second compound 0.316 µM, first compound 1 µM
[17] = second compound 0.316 µM, first compound 3.16 µM
[18] = second compound 0.316 µM, first compound 10 µM
[19] = second compound 1 µM, first compound 0.0316 µM
[20] = second compound 1 µM, first compound 0.1 µM
[21] = second compound 1 µM, first compound 0.316 µM
[22] = second compound 1 µM, first compound 1 µM
[23] = second compound 1 µM, first compound 3.16 µM
[24] = second compound 1 µM, first compound 10 µM
[25] = second compound 3.16 µM, first compound 0.0316 µM
[26] = second compound 3.16 µM, first compound 0.1 µM
[27] = second compound 3.16 µM, first compound 0.316 µM
[28] = second compound 3.16 µM, first compound 1 µM
[29] = second compound 3.16 µM, first compound 3.16 µM
[30] = second compound 3.16 µM, first compound 10 µM
[31] = second compound 10 µM, first compound 0.0316 µM
[32] = second compound 10 µM, first compound 0.1 µM
[33] = second compound 10 µM, first compound 0.316 µM
[34] = second compound 10 µM, first compound 1 µM
[35] = second compound 10 µM, first compound 3.16 µM
[36] = second compound 10 µM, first compound 10 µM
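Further: spheroids exposed to compounds for seven days before readout.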

Compound CCCS(=O)(=O)Nc1ccc(F)c(C(=O)c2c[nH]c3ncc(-c4ccc(Cl)cc4)cc23)c1F + Nc1ccc(C#CCN(C(=O)Cc2ncc(C(F)(F)F)cc2C(F)(F)F)c2ccc(F)cc2)nn1 has an IC50 (second compound 0.0316 µM) of over 10 µM, an IC50 (second compound 0.1 µM) of over 10 µM and an IC50 (second compound 0.316 µM) of over 10 µM. It also gave an IC50 (second compound 1 µM) of over 10 µM, an IC50 (second compound 3.16 µM) of over 10 µM and an IC50 (second compound 10 µM) of over 10 µM. The viability, T/C [1] was 97.9%, the viability, T/C [2] was 115% and the viability, T/C [3] was 115%. The viability, T/C [4] was 102%, the viability, T/C [5] was 158% and the viability, T/C [6] was 160%. For the same compound, the viability, T/C [7] was 101%, the viability, T/C [8] was 105% and the viability, T/C [9] was 99.2%. The viability, T/C [10] was 116%, the viability, T/C [11] was 156% and the viability, T/C [12] was 145%. For the same compound, the viability, T/C [13] was 102%, the viability, T/C [14] was 103% and the viability, T/C [15] was 82.3%. For the same compound, the viability, T/C [16] was 105%, the viability, T/C [17] was 143% and the viability, T/C [18] was 131%. It also gave a viability, T/C [19] of 122%, a viability, T/C [20] of 92.5% and a viability, T/C [21] of 115%. It also gave a viability, T/C [22] of 93.8%, a viability, T/C [23] of 146% and a viability, T/C [24] of 145%. For the same compound, the viability, T/C [25] was 84.8%, the viability, T/C [26] was 135% and the viability, T/C [27] was 121%. It also gave a viability, T/C [28] of 109%, a viability, T/C [29] of 142% and a viability, T/C [30] of 160%. The viability, T/C [31] was 119%, the viability, T/C [32] was 104% and the viability, T/C [33] was 104%. For the same compound, the viability, T/C [34] was 119%, the viability, T/C [35] was 143% and the viability, T/C [36] was 171%.

Compound CNCc1ccc(-c2[nH]c3cc(F)cc4c3c2CCNC4=O)cc1 + Nc1ccc(C#CCN(C(=O)Cc2ncc(C(F)(F)F)cc2C(F)(F)F)c2ccc(F)cc2)nn1 has an IC50 (second compound 0.0316 µM) of over 10 µM, an IC50 (second compound 0.1 µM) of over 10 µM and an IC50 (second compound 0.316 µM) of over 10 µM. For the same compound, the IC50 (second compound 1 µM) was over 10 µM, the IC50 (second compound 3.16 µM) was over 10 µM and the IC50 (second compound 10 µM) was over 10 µM. It also gave a viability, T/C [1] of 98.8%, a viability, T/C [2] of 89.6% and a viability, T/C [3] of 93.5%. For the same compound, the viability, T/C [4] was 103%, the viability, T/C [5] was 101% and the viability, T/C [6] was 113%. For the same compound, the viability, T/C [7] was 116%, the viability, T/C [8] was 97% and the viability, T/C [9] was 95.6%. For the same compound, the viability, T/C [10] was 83.2%, the viability, T/C [11] was 102% and the viability, T/C [12] was 111%. It also gave a viability, T/C [13] of 102%, a viability, T/C [14] of 107% and a viability, T/C [15] of 101%. For the same compound, the viability, T/C [16] was 87.2%, the viability, T/C [17] was 98.4% and the viability, T/C [18] was 70.2%. It also gave a viability, T/C [19] of 93.3%, a viability, T/C [20] of 86.9% and a viability, T/C [21] of 123%. The viability, T/C [22] was 87.2%, the viability, T/C [23] was 111% and the viability, T/C [24] was 119%. The viability, T/C [25] was 88.1%, the viability, T/C [26] was 97.9% and the viability, T/C [27] was 81.9%. It also gave a viability, T/C [28] of 97.8%, a viability, T/C [29] of 100% and a viability, T/C [30] of 105%. It also gave a viability, T/C [31] of 92.8%, a viability, T/C [32] of 94.8% and a viability, T/C [33] of 99.5%. It also gave a viability, T/C [34] of 91%, a viability, T/C [35] of 87% and a viability, T/C [36] of 131%.

In the case of Cn1ncnc1[C@H]1c2n[nH]c(=O)c3cc(F)cc(c23)N[C@@H]1c1ccc(F)cc1 + Nc1ccc(C#CCN(C(=O)Cc2ncc(C(F)(F)F)cc2C(F)(F)F)c2ccc(F)cc2)nn1, the IC50 (second compound 0.0316 µM) is reported as over 0.1 µM, the IC50 (second compound 0.1 µM) is reported as over 0.1 µM and the IC50 (second compound 0.316 µM) is reported as over 0.1 µM. It also gave an IC50 (second compound 1 µM) of over 0.1 µM, an IC50 (second compound 3.16 µM) of over 0.1 µM and an IC50 (second compound 10 µM) of over 0.1 µM. It also gave a viability, T/C (second compound 0.0316 µM, first compound 0.000316 µM) of 86.1%, a viability, T/C (second compound 0.0316 µM, first compound 0.001 µM) of 95.8% and a viability, T/C (second compound 0.0316 µM, first compound 0.00316 µM) of 89.1%. It also gave a viability, T/C (second compound 0.0316 µM, first compound 0.01 µM) of 92.1%, a viability, T/C [1] of 79.7% and a viability, T/C [2] of 85.3%. For the same compound, the viability, T/C (second compound 0.1 µM, first compound 0.000316 µM) was 97.9%, the viability, T/C (second compound 0.1 µM, first compound 0.001 µM) was 107% and the viability, T/C (second compound 0.1 µM, first compound 0.00316 µM) was 91.8%. For the same compound, the viability, T/C (second compound 0.1 µM, first compound 0.01 µM) was 101%, the viability, T/C [7] was 88.5% and the viability, T/C [8] was 101%. The viability, T/C (second compound 0.316 µM, first compound 0.000316 µM) was 110%, the viability, T/C (second compound 0.316 µM, first compound 0.001 µM) was 114% and the viability, T/C (second compound 0.316 µM, first compound 0.00316 µM) was 92.1%. It also gave a viability, T/C (second compound 0.316 µM, first compound 0.01 µM) of 82.7%, a viability, T/C [13] of 93% and a viability, T/C [14] of 99.4%. It also gave a viability, T/C (second compound 1 µM, first compound 0.000316 µM) of 105%, a viability, T/C (second compound 1 µM, first compound 0.001 µM) of 96.3% and a viability, T/C (second compound 1 µM, first compound 0.00316 µM) of 78.6%. For the same compound, the viability, T/C (second compound 1 µM, first compound 0.01 µM) was 99%, the viability, T/C [19] was 105% and the viability, T/C [20] was 69.7%. It also gave a viability, T/C (second compound 3.16 µM, first compound 0.000316 µM) of 103%, a viability, T/C (second compound 3.16 µM, first compound 0.001 µM) of 101% and a viability, T/C (second compound 3.16 µM, first compound 0.00316 µM) of 98.5%. It also gave a viability, T/C (second compound 3.16 µM, first compound 0.01 µM) of 83.8%, a viability, T/C [25] of 87.9% and a viability, T/C [26] of 87.6%. It also gave a viability, T/C (second compound 10 µM, first compound 0.000316 µM) of 91.6%, a viability, T/C (second compound 10 µM, first compound 0.001 µM) of 103% and a viability, T/C (second compound 10 µM, first compound 0.00316 µM) of 110%. For the same compound, the viability, T/C (second compound 10 µM, first compound 0.01 µM) was 104%, the viability, T/C [31] was 88.5% and the viability, T/C [32] was 122%.

Source: PubChem BioAssay AID1963853 (Molecular Pharmacology Branch, DTP, NCI, 2024)
